# Test results: US11969419B2, “Method of treating cancer” (Exelixis, Inc., priority 2010, dated 2024)
# Columns and labels:
# endothelial cells = settings: cited from earlier work
# tumor cells = settings: cited from earlier work
# xenograft tumor models = settings: cited from earlier work
# [1] = phase 1 clinical study; cited from earlier work
# [2] = tested on: pancreatic neuroendocrine tumor model; settings: murine pancreatic neuroendocrine tumor model; cited from earlier work
# [3] = tested on: castration-resistant prostate cancer (CRPC) with bone metastases; test: Adaptive phase 2 trial (NCT00940225), case studies of the first three CRPC patients with bone metastases, Compound 1 100 mg; format: in vivo, human; settings: for Bone scan (best response) / Pain (best response): preliminary best response
# Procedure: In 2000, local disease recurrence was treated with radiation therapy. […] CAB with leuprolide and bicalutanide was initiated. […] All patients provided informed consent before study screening.
# [4] = three metastatic CRPC patients, summary
smiles,measurement,setting,value
"COc1cc2nccc(Oc3ccc(NC(=O)C4(C(=O)Nc5ccc(F)cc5)CC4)cc3)c2cc1OC [Compound 1, N-(4-{[6,7-bis(methyloxy)quinolin-4-yl]oxy}phenyl)-N′-(4-fluorophenyl)cyclopropane-1,1-dicarboxamide]",Apoptosis of endothelial cells,endothelial cells,rapidly induces apoptosis
same,Apoptosis of tumor cells,tumor cells,rapidly induces apoptosis
same,Tumor regression,xenograft tumor models,causes tumor regression
same,Most commonly observed adverse events,[1],"fatigue, diarrhea, anorexia, rash, and palmar-plantar erythrodysesthesia"
same,Tolerability,[1],generally well-tolerated
same,Overall survival,[2],substantially improves
same,Tumor invasiveness and metastasis,[2],significantly reduces
same,Bone scan: radiotracer uptake by bone metastases,"[3]; Patient 1, Week 6",dramatic decrease in radiotracer uptake
same,CT scan response category,"[3]; Patient 1, Week 6",partial response (PR)
same,CT scan: decrease in measurable target lesions,"[3]; Patient 1, Week 6",33%
same,Bone lesions on bone scan,"[3]; Patient 1, Week 12, stable through Week 18",near complete resolution of bone lesions
same,Adverse event leading to withdrawal,"[3]; Patient 1, Week 18",Grade 3 diarrhea
same,Bone pain,"[3]; Patient 1, four weeks after start",significant reduction in bone pain
same,Bone scan (best response),[3]; Patient 1,Complete resolution
same,Pain (best response),[3]; Patient 1,Improvement
same,Bone pain,"[3]; Patient 2, Week 4",reduction in bone pain
same,Bone scan: radiotracer uptake by bone lesions,"[3]; Patient 2, Week 6",slight flair in radiotracer uptake
same,CT scan: decrease in target lesions,"[3]; Patient 2, Week 6",13%
same,Bone scan: radiotracer uptake,"[3]; Patient 2, Week 12",substantial reduction of radiotracer uptake
same,Bone scan (best response),[3]; Patient 2,Improvement
same,Pain (best response),[3]; Patient 2,Pain-free
same,Bone scan: radiotracer uptake,"[3]; Patient 3, Week 6",dramatic reduction in radiotracer uptake
same,CT scan: decrease in measurable target lesions,"[3]; Patient 3, Week 6",43%
same,Bone lesions on bone scan,"[3]; Patient 3, Week 12",complete resolution of bone lesions
same,Pain,"[3]; Patient 3, after three weeks",complete resolution of pain
same,Bone scan (best response),[3]; Patient 3,Near resolution
same,Pain (best response),[3]; Patient 3,Pain-free
same,Bone pain,"[3]; all three patients, discussion",substantial reductions in bone pain
same,Soft tissue lesions,"[3]; all three patients, discussion",response or stabilization
same,Uptake of radiotracer on bone scan,"[3]; all three patients, discussion",striking decrease
same,Bone lesions,[3]; [4],near complete resolution of bone lesions
same,Bone pain,[3]; [4],marked reduction
same,Measurable disease,[3]; [4],reduction in measurable disease
same,Total serum alkaline phosphatase (tALP) levels,[3]; [4],marked reduction
